In assay [1] the target is T1, HCV polymerase (NS5B) type 1b (Hepatitis C virus genotype 1b, UniProt P26663).
T1 construct: a region encoding NS5B (J Virol 1991 March, 65(3), 1105-13, 544 amino acids after deletion of 47 amino acids on the C-terminal); 6xHis (C); made in house; host or cells: Escherichia coli
Description: Assay of enzyme (HCV polymerase) inhibitory activity, type 1b enzyme. The conditions noted are these: HCV polymerase inhibitory activity (IC50), 1b, type 1b enzyme 0.5 μg/ml, 25° C., 60 min. The assay is classed as biochemical, HCV BK strain (type 1b). From the text:
(§1) The evaluation of the HCV polymerase inhibitory activity of the compound of the present invention is explained in the following. This polymerase is an enzyme coded for by the non-structural protein region called NS5B on the genome RNA of HCV.
(§2) i) Preparation of Enzyme (HCV Polymerase)
(§3) Using, as a template, a cDNA clone corresponding to the full length genome RNA of HCV BK strain (type 1b) obtained from the blood of a patient with hepatitis C, a region encoding NS5B (J Virol 1991 March, 65(3), 1105-13, 544 amino acids after deletion of 47 amino acids on the C-terminal) was amplified by PCR. The objective gene was prepared by adding a 6 His tag {base pair encoding 6 continuous histidine (His)} to the 3′ end thereof and transformed to Escherichia coli. The Escherichia coli capable of producing the objective protein was cultured. The obtained cells were suspended in a buffer solution and crushed in a microfluidizer. The supernatant was obtained by centrifugation and applied to various column chromatographys {mono-S, Sephacryl S-200 (Pharmacia)}, inclusive of metal chelate chromatography, to give a standard enzyme product.
(§4) ii) Synthesis of Substrate RNA
(§5) Using a synthetic primer designed based on the sequence of HCV genomic 3′ untranslated region, a DNA fragment (148 bp) containing polyU and 3′X sequence was entirely synthesized and cloned into plasmid pBluescript SK II(+) (Stratagene). The cDNA encoding full length NS5B, which was prepared in i) above, was digested with restriction enzyme KpnI to give a cDNA fragment containing the nucleotide sequence of from the restriction enzyme cleavage site to the termination codon. This cDNA fragment was inserted into the upstream of 3′ untranslated region of the DNA in pBluescript SK II(+) and ligated. The about 450 bp inserted DNA sequence was used as a template in the preparation of substrate RNA. This plasmid was cleaved immediately after the 3′X sequence, linearized and purified by phenol-chloroform treatment and ethanol precipitation to give DNA.
(§6) RNA was synthesized (37° C., 4 hr) by run-off method using this purified DNA as a template, a promoter of pBluescript SK II(+), MEGAscript RNA synthesis kit (Ambion) and T7 RNA polymerase. DNase I was added and the mixture was incubated for 1 hr. The template DNA was removed by decomposition to give a crude RNA product. This crude product was treated with phenol-chloroform and purified by ethanol precipitation to give the objective substrate RNA.
(§7) This RNA was applied to urea denaturation polyacrylamide gel electrophoresis to confirm the quality thereof and preserved at −80° C.
(§8) iii) Assay of Enzyme (HCV Polymerase) inhibitory activity
(§9) A test substance (compound of the present invention) and a reaction mixture (30 μl) having the following composition were reacted at 25° C. for 60 min.
(§10) 10% Trichloroacetic acid and 1% sodium pyrophosphate solution (150 μl) at 4° C. was added to this reaction mixture to stop the reaction. The reaction mixture was left standing at 4° C. for 15 min to insolubilize RNA. This RNA was trapped on a glass filter (PerkinElmer, GF/B) upon filtration by suction. This filter was washed with a solution containing 1% trichloroacetic acid and 0.1% sodium pyrophosphate, washed with 90% ethanol and dried. A liquid scintillation cocktail (PerkinElmer) was added and the radioactivity of RNA synthesized by the enzyme reaction was measured on a liquid scintillation counter.
The HCV polymerase inhibitory activity (IC50) of the compound of the present invention was calculated from the values of radioactivity of the enzyme reaction with and without the test substance.
Reaction mixture: HCV polymerase (type 1b 0.5 μg/ml or type 1a 1.5 μg/m) obtained in i), substrate RNA (5 μg/ml) obtained in ii), ATP (50 μM), GTP (50 μM), CTP (50 μM), UTP (2 μM), [5,6-^3H]UTP (30-60 Ci/mmol (Amersham Biosciences), 1 μCi) 20 mM Tris-HCl (pH 7.5), EDTA (1 mM), MgCl2 (5 mM), NaCl (50 mM), DTT (1 mM), BSA (0.01%)

Assay [2] addresses T2, HCV polymerase (NS5B) type 1a (Hepatitis C virus genotype 1a, UniProt P26664).
T2 construct: made in house; host or cells: Escherichia coli (by the 'similar method' of the 1b enzyme)
Description: Assay of enzyme (HCV polymerase) inhibitory activity, type 1a enzyme. The assay is classed as biochemical, HCV type 1a (cloned from the blood of patients). The conditions noted are these: HCV polymerase inhibitory activity (IC50), 1a, type 1a enzyme 1.5 μg/ml, 25° C., 60 min.
From the text: as §1, §2, §3
Standard enzyme products for type 1a (cloned from the blood of patients) were also obtained by a similar method.
as §4, §5, §6, §7, §8, §9, §10
The HCV polymerase inhibitory activity (IC50) of the compound of the present invention was calculated from the values of radioactivity of the enzyme reaction with and without the test substance. […]

The record followed here is patent publication US8017612B2, “Piperazine compound and use thereof as a HCV polymerase inhibitor” (priority 2006, dated 2011).

In general, IC50 refers to the concentration needed to halve the response being measured. Low readings indicate greater potency in that assay, high ones weaker potency in that assay.

As for `CC(=O)N1CCN(S(=O)(=O)c2ccc(C(C)C)cc2)[C@@H](C(=O)NCc2ccc(C(F)(F)F)cc2)C1` [Example 18, (R)-4-acetyl-1-(4-isopropyl-benzenesulfonyl)-piperazine-2-carboxylic acid 4-trifluoromethyl-benzylamide], the concentration for half-maximal inhibition (IC50) in assay [1] and in assay [2] was 100 to 1000 nM in each case.
For `CC(=O)N1CCN(S(=O)(=O)c2ccc(C(C)C)cc2)[C@H](C(=O)NCc2ccc(C(F)(F)F)cc2)C1` [Example 19, (S)-4-acetyl-1-(4-isopropyl-benzenesulfonyl)-piperazine-2-carboxylic acid 4-trifluoromethyl-benzylamide], the IC50 in assay [1] and in assay [2] was > 1000 nM throughout.
For `CC(=O)N1CCN(S(=O)(=O)c2ccc(Cl)cc2)C(C(=O)NCc2ccc(C(F)(F)F)cc2)C1` (centres unmarked) [Example 20, 4-acetyl-1-(4-chloro-benzenesulfonyl)-piperazine-2-carboxylic acid 4-trifluoromethyl-benzylamide], the half-inhibitory concentration (IC50) in assay [1] and in assay [2] was > 1000 nM in each case.
`CC(=O)N1CCN(S(=O)(=O)c2ccccc2Cl)C(C(=O)NCc2ccc(C(F)(F)F)cc2)C1` (centres unmarked) [Example 21, 4-acetyl-1-(2-chloro-benzenesulfonyl)-piperazine-2-carboxylic acid 4-trifluoromethyl-benzylamide]: the IC50 in assay [1] and in assay [2] was > 1000 nM each time.
For the compound `CC(=O)N1CCN(S(=O)(=O)c2ccc(Br)cc2)C(C(=O)NCc2ccc(C(F)(F)F)cc2)C1` (centres unmarked) [Example 22, 4-acetyl-1-(4-bromo-benzenesulfonyl)-piperazine-2-carboxylic acid 4-trifluoromethyl-benzylamide], the half-maximal inhibitory concentration (IC50) in assay [1] and in assay [2] was > 1000 nM throughout.
For `CC(=O)N1CCN(S(=O)(=O)c2ccc(Br)s2)C(C(=O)NCc2ccc(C(F)(F)F)cc2)C1` (centres unmarked) [Example 23, 4-acetyl-1-(5-bromo-thiophene-2-sulfonyl)-piperazine-2-carboxylic acid 4-trifluoromethyl-benzylamide], the IC50 in assay [1] and in assay [2] was > 1000 nM throughout.
Regarding `CC(=O)N1CCN(S(=O)(=O)c2ccccc2)C(C(=O)NCc2ccc(C(F)(F)F)cc2)C1` (centres unmarked) [Example 24, 4-acetyl-1-benzenesulfonyl-piperazine-2-carboxylic acid 4-trifluoromethyl-benzylamide], the concentration for half-maximal inhibition (IC50) in assay [1] and in assay [2] was > 1000 nM in each case.
On to `CC(=O)N1CCN(S(=O)(=O)c2ccc(Oc3ccc(Cl)cc3)cc2)C(C(=O)NCc2ccc(C(F)(F)F)cc2)C1` (centres unmarked) [Example 25, 4-acetyl-1-[4-(4-chloro-phenoxy)-benzenesulfonyl]-piperazine-2-carboxylic acid 4-trifluoromethyl-benzylamide], for which the IC50 in assay [1] and in assay [2] was > 1000 nM each time.
As to `CC(=O)N1CCN(S(=O)(=O)c2ccc(-c3ccc(Cl)cc3)cc2)C(C(=O)NCc2ccc(C(F)(F)F)cc2)C1` (centres unmarked) [Example 26, 4-acetyl-1-(4′-chloro-biphenyl-4-sulfonyl)-piperazine-2-carboxylic acid 4-trifluoromethyl-benzylamide], the concentration for half-maximal inhibition (IC50) in assay [1] and in assay [2] was > 1000 nM each time.
Turning to `CC(=O)N1CCN(S(=O)(=O)c2cc(C)cc(C)c2Oc2ccc(C#N)cc2)C(C(=O)NCc2ccc(C(F)(F)F)cc2)C1` (centres unmarked) [Example 27, 4-acetyl-1-[2-(4-cyano-phenoxy)-3,5-dimethyl-benzenesulfonyl]-piperazine-2-carboxylic acid 4-trifluoromethyl-benzylamide], the half-maximal inhibitory concentration (IC50) in assay [1] and in assay [2] was > 1000 nM throughout.
Take `CC(=O)N1CCN(S(=O)(=O)c2ccc(-c3ccc(Cl)cc3)s2)C(C(=O)NCc2ccc(C(F)(F)F)cc2)C1` (centres unmarked) [Example 28, 4-acetyl-1-[5-(4-chloro-phenyl)-thiophene-2-sulfonyl]-piperazine-2-carboxylic acid 4-trifluoromethyl-benzylamide]: the IC50 in assay [1] and in assay [2] was > 1000 nM in each case.
Consider `CC(=O)N1CCN(S(=O)(=O)c2cccc(Cl)c2)C(C(=O)NCc2ccc(C(F)(F)F)cc2)C1` (centres unmarked) [Example 29, 4-acetyl-1-(3-chloro-benzenesulfonyl)-piperazine-2-carboxylic acid 4-trifluoromethyl-benzylamide], for which the IC50 in assay [1] and in assay [2] was > 1000 nM in each case.
For the compound `CC(=O)N1CCN(S(=O)(=O)c2ccc(C(C)(C)C)cc2)C(C(=O)NCc2ccc(C(F)(F)F)cc2)C1` (centres unmarked) [Example 30, 4-acetyl-1-(4-tert-butyl-benzenesulfonyl)-piperazine-2-carboxylic acid 4-trifluoromethyl-benzylamide], the concentration for half-maximal inhibition (IC50) in assay [1] and in assay [2] was > 1000 nM in each case.
On to `CC(=O)c1ccc(S(=O)(=O)N2CCN(C(C)=O)CC2C(=O)NCc2ccc(C(F)(F)F)cc2)cc1` (centres unmarked) [Example 31, 4-acetyl-1-(4-acetyl-benzenesulfonyl)-piperazine-2-carboxylic acid 4-trifluoromethyl-benzylamide], for which the half-maximal inhibitory concentration (IC50) in assay [1] and in assay [2] was > 1000 nM throughout.
Turning to `COC(=O)N1CCN(S(=O)(=O)c2ccc(C(C)C)cc2)C(C(=O)NCc2ccc(C(F)(F)F)cc2)C1` (centres unmarked) [Example 32, 4-(4-isopropyl-benzenesulfonyl)-3-(4-trifluoromethyl-benzylcarbamoyl)-piperazine-1-carboxylic acid methyl ester], the IC50 in assay [1] and in assay [2] was > 1000 nM each time.
Regarding `CC(=O)N1CCN(S(=O)(=O)c2ccc(C(C)C)cc2)C(C(=O)NCc2cccc(Cl)c2)C1` (centres unmarked) [Example 33, 4-acetyl-1-(4-isopropyl-benzenesulfonyl)-piperazine-2-carboxylic acid 3-chloro-benzylamide], the IC50 in assay [1] and in assay [2] was > 1000 nM each time.
Consider `CC(=O)N1CCN(S(=O)(=O)c2ccc(C(C)C)cc2)C(C(=O)NCc2ccccc2Cl)C1` (centres unmarked) [Example 34, 4-acetyl-1-(4-isopropyl-benzenesulfonyl)-piperazine-2-carboxylic acid 2-chloro-benzylamide], for which the IC50 in assay [1] and in assay [2] was > 1000 nM in each case.
Take `CC(=O)N1CCN(S(=O)(=O)c2ccc(C(C)C)cc2)C(C(=O)NCc2ccc(Cl)cc2)C1` (centres unmarked) [Example 35, 4-acetyl-1-(4-isopropyl-benzenesulfonyl)-piperazine-2-carboxylic acid 4-chloro-benzylamide]: the IC50 in assay [1] and in assay [2] was > 1000 nM throughout.
Regarding `CC(=O)N1CCN(S(=O)(=O)c2ccc(C(C)C)cc2)C(C(=O)NCc2ccc(-c3ccccc3)cc2)C1` (centres unmarked) [Example 36, 4-acetyl-1-(4-isopropyl-benzenesulfonyl)-piperazine-2-carboxylic acid (biphenyl-4-ylmethyl)-amide], the IC50 in assay [1] is > 1000 nM; in assay [2] it was 100 to 1000 nM.
